Consider 15 compounds from ChEMBL document CHEMBL1201862, “PubChem BioAssay data set” (2004).

Structures are written as SMILES.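 In this assay, cells in 96-well plates receive the compound at five concentrations for 48 hours. Endpoints are linearly interpolated between the surrounding concentrations. The concentration for 50% growth inhibition is given as GI50.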 Active and inactive are the calls of the source. No stated cut-off is given here; in the data, active = GI50 up to about 1.1 µM and inactive = higher. A value given as a limit tells only on which side of the number the result lay.

Some test systems named below: CAKI-1; CCRF-CEM; COLO 205; EKVX; HCT-15; HT-29; IGROV-1; M14; MOLT-4; Malme-3M; NCI-H23; NCI-H522; OVCAR-3; SN12C; HCT-116.
Common to all, as to experiment: NCI tumour cell line growth inhibition, 48 h

Regarding `O=C(Cn1ccnc1[N+](=O)[O-])c1ccccc1`, the GI50 in the assay on CAKI-1 was > 100 µM (inactive); in the assay on CCRF-CEM, > 100 µM (inactive); in the assay with COLO 205, > 100 µM (inactive); in the assay with EKVX it was > 100 µM (inactive); in the assay with HCT-15, above 100 µM; with HT-29 it was > 100 µM (inactive). Further, the GI50 in the assay with IGROV-1, in the assay on M14, in the assay on MOLT-4, with Malme-3M, in the assay on NCI-H23 and in the assay on NCI-H522 was > 100 µM (inactive) throughout. Also, the GI50 in the assay on OVCAR-3 and in the assay with SN12C was > 100 µM (inactive) throughout.
In the case of `COc1cccc(N2C(=O)c3c(c4[nH]c5ccccc5c4c4ccc(C(C)(C)C)cc34)C2=O)c1`, the GI50 in the assay with CAKI-1 was > 100 µM (inactive); in the assay with CCRF-CEM, > 100 µM (inactive); in the assay on COLO 205, > 100 µM (inactive); with EKVX it was > 100 µM (inactive); in the assay on HCT-116, > 100 µM (inactive); in the assay with HCT-15, above 100 µM. The GI50 with IGROV-1 is > 100 µM (inactive); in the assay on M14 it was > 100 µM (inactive); with MOLT-4, 84.7 µM (inactive); in the assay on Malme-3M, > 100 µM (inactive); in the assay with NCI-H23, > 100 µM (inactive); with NCI-H522, > 100 µM (inactive). For the same compound, the GI50 in the assay on OVCAR-3 and with SN12C was > 100 µM (inactive) each time.
Turning to `CCN(CC)C(=O)CCn1cc(F)c(=O)[nH]c1=O`, the GI50 with CCRF-CEM was > 100 µM (inactive); in the assay with COLO 205, > 100 µM (inactive); in the assay on EKVX, > 100 µM (inactive); in the assay on HCT-116 it was > 100 µM (inactive); with HCT-15, above 100 µM; in the assay with HT-29 it was > 100 µM (inactive). In addition, the GI50 with IGROV-1, in the assay with M14, with MOLT-4, in the assay on Malme-3M, in the assay with NCI-H23 and in the assay with NCI-H522 was > 100 µM (inactive) throughout. Besides, the GI50 with OVCAR-3 and in the assay with SN12C was > 100 µM (inactive) throughout.
With `OCC(O)C(OC1OC(CO)C(O)C(O)C1O)c1nn(-c2ccccc2)c2nc3cc(Cl)c(Cl)cc3cc12` (stereo not drawn), the GI50 in the assay with CCRF-CEM was > 100 µM (inactive); with EKVX, > 100 µM (inactive); in the assay on HCT-116 it was > 100 µM (inactive); in the assay with HCT-15, above 100 µM; with HT-29, > 100 µM (inactive); in the assay on M14, > 100 µM (inactive). In addition, the GI50 in the assay with MOLT-4 is > 100 µM (inactive); with Malme-3M, > 100 µM (inactive); in the assay on NCI-H23, > 100 µM (inactive); in the assay on NCI-H522, 63 µM (inactive); in the assay on OVCAR-3 it was > 100 µM (inactive); with SN12C, > 100 µM (inactive).
`Cc1cccc(C2=NC(C)(C)C(C)(C)N=C2c2cccc(C)n2)n1`: the GI50 was > 100 µM (inactive) with CAKI-1; 71 µM (inactive) with CCRF-CEM; 67.5 µM (inactive) with COLO 205; > 100 µM (inactive) in the assay with EKVX; 35.4 µM (inactive) in the assay with HCT-116; above 100 µM with HCT-15. For the same compound, the GI50 with HT-29 was 26.1 µM (inactive); in the assay with IGROV-1, 38.5 µM (inactive); with M14 it was 71.6 µM (inactive); with Malme-3M, > 100 µM (inactive); in the assay with NCI-H23 it was 30.1 µM (inactive); in the assay with NCI-H522 it was > 100 µM (inactive). Besides, the GI50 in the assay on OVCAR-3 is 44.1 µM (inactive).
With `COc1ccc(Nc2nc3c(N)cc(C(F)(F)F)cc3nc2-c2ccccc2)cc1OC`, the GI50 in the assay on CAKI-1 was 22.6 µM (inactive); in the assay on CCRF-CEM, > 100 µM (inactive); in the assay with COLO 205, 55.7 µM (inactive); with EKVX, 18.5 µM (inactive); in the assay with HCT-116, 25.6 µM (inactive); with HCT-15, 33.4 µM. Also, the GI50 in the assay on IGROV-1 is 22.3 µM (inactive); with M14 it was 28.6 µM (inactive); in the assay with MOLT-4, 66.7 µM (inactive); with Malme-3M, 16.4 µM (inactive); with NCI-H23, 32.9 µM (inactive); in the assay with NCI-H522, 15.6 µM (inactive). For the same compound, the GI50 is 18.8 µM (inactive) with OVCAR-3 and 20.2 µM (inactive) in the assay with SN12C.
Take `CCOC(=O)C1=C(C)C2C3C(=O)NC(=O)C3C1(C)C1C(=O)NC(=O)C21` (stereo not drawn): the GI50 with CCRF-CEM is > 100 µM (inactive); with COLO 205, > 100 µM (inactive); in the assay with EKVX, > 100 µM (inactive); in the assay on HCT-116 it was > 100 µM (inactive); in the assay on HCT-15 it was above 100 µM; in the assay on HT-29 it was > 100 µM (inactive). Moreover, the GI50 was > 100 µM (inactive) in the assay with IGROV-1; > 100 µM (inactive) with M14; > 100 µM (inactive) in the assay on MOLT-4; > 100 µM (inactive) with Malme-3M; > 100 µM (inactive) in the assay on NCI-H23; 59.7 µM (inactive) in the assay with OVCAR-3. Besides, in the assay on SN12C, the GI50 was > 100 µM (inactive).
Regarding `NNC(=S)N/N=C/C(=C/Nc1ccccc1)[N+](=O)[O-]`, the GI50 with CAKI-1, in the assay on COLO 205, in the assay with EKVX, in the assay on HCT-116, in the assay with HT-29 and in the assay on IGROV-1 was > 100 µM (inactive) each time. For the same compound, the GI50 in the assay on M14, in the assay with Malme-3M, in the assay on NCI-H23, in the assay on NCI-H522, with OVCAR-3 and with SN12C was > 100 µM (inactive) in each case.
Regarding `O=c1c2cc(Br)ccc2nc(-c2ccccc2)n1NCC1(O)OCC(O)C(O)C1O` (stereo not drawn), the GI50 in the assay with CAKI-1 is > 100 µM (inactive); in the assay with CCRF-CEM it was 40.2 µM (inactive); in the assay on COLO 205, > 100 µM (inactive); in the assay on EKVX, > 100 µM (inactive); with HCT-116, > 100 µM (inactive); in the assay with HCT-15, above 100 µM. For the same compound, the GI50 was > 100 µM (inactive) in the assay with HT-29; > 100 µM (inactive) in the assay with M14; 72.8 µM (inactive) with MOLT-4; > 100 µM (inactive) with Malme-3M; > 100 µM (inactive) with NCI-H23; > 100 µM (inactive) with NCI-H522. Moreover, the GI50 is 81.8 µM (inactive) in the assay on OVCAR-3 and > 100 µM (inactive) in the assay with SN12C.
Regarding `Cc1cc([N+](=O)[O-])ccc1Sc1c2ccccc2nc2ccccc12`, the GI50 is 26.4 µM (inactive) in the assay with CAKI-1; 21.8 µM (inactive) in the assay with CCRF-CEM; 39.9 µM (inactive) with COLO 205; 39 µM (inactive) in the assay with EKVX; 22.5 µM (inactive) with HCT-116; 22.5 µM in the assay with HCT-15. Moreover, the GI50 with IGROV-1 is 28.4 µM (inactive); in the assay with M14 it was 32.6 µM (inactive); in the assay with MOLT-4, 15.7 µM (inactive); in the assay on Malme-3M, > 100 µM (inactive); in the assay with NCI-H23, 33 µM (inactive); in the assay on NCI-H522 it was 18.1 µM (inactive). The GI50 in the assay on OVCAR-3 was 41.4 µM (inactive); with SN12C it was 39.6 µM (inactive).
In the case of `N#CC(C(=N/NC(N)=S)/C(=N/NC(N)=S)C(C#N)c1ccc(Cl)cc1)c1ccc(Cl)cc1` (stereo not drawn), the GI50 is 22.6 µM (inactive) in the assay on CCRF-CEM; > 100 µM (inactive) in the assay with COLO 205; > 100 µM (inactive) in the assay on EKVX; > 100 µM (inactive) in the assay with HCT-116; 83.8 µM with HCT-15; > 100 µM (inactive) in the assay on HT-29. Moreover, the GI50 is > 100 µM (inactive) in the assay with IGROV-1; > 100 µM (inactive) in the assay with M14; 22.7 µM (inactive) in the assay with MOLT-4; > 100 µM (inactive) in the assay on Malme-3M; 65.5 µM (inactive) with NCI-H23; > 100 µM (inactive) in the assay on NCI-H522. The GI50 in the assay on OVCAR-3 was 80 µM (inactive); in the assay with SN12C, > 100 µM (inactive).
For the compound `CC1=N/C(=C\c2ccc(/C=C3/N=C(C)OC3=O)cc2)C(=O)O1`, the GI50 is > 100 µM (inactive) in the assay with CAKI-1; > 100 µM (inactive) in the assay with CCRF-CEM; > 100 µM (inactive) in the assay with COLO 205; > 100 µM (inactive) with HCT-116; above 100 µM with HCT-15; > 100 µM (inactive) in the assay with HT-29. Further, the GI50 in the assay with IGROV-1 is > 100 µM (inactive); with M14, > 100 µM (inactive); in the assay on MOLT-4, > 10 µM (inactive); in the assay with Malme-3M, > 100 µM (inactive); in the assay with NCI-H23, > 100 µM (inactive); in the assay on NCI-H522, > 100 µM (inactive). The GI50 in the assay with OVCAR-3 and in the assay with SN12C was > 100 µM (inactive) in each case.
Turning to `[N-]=[N+]=Nc1cc(=O)n(-c2ccccc2)c2ccccc12`, the GI50 in the assay on CAKI-1 is > 100 µM (inactive); with CCRF-CEM, > 100 µM (inactive); in the assay with COLO 205, > 100 µM (inactive); in the assay on HCT-116, > 100 µM (inactive); in the assay on HCT-15 it was above 100 µM; with HT-29, > 100 µM (inactive). Further, the GI50 with IGROV-1, in the assay with M14, in the assay with MOLT-4, with Malme-3M, with NCI-H23 and in the assay with NCI-H522 was > 100 µM (inactive) in each case. In the assay with SN12C, the GI50 is > 100 µM (inactive).
For the compound `N#Cc1ccccc1NC(=O)/C(=N\N)C(C(=O)c1ccncc1)C1OC(=O)c2ccccc21` (stereo not drawn), the GI50 is > 100 µM (inactive) in the assay on CCRF-CEM; > 100 µM (inactive) with COLO 205; > 100 µM (inactive) in the assay with EKVX; > 100 µM (inactive) in the assay with HCT-116; above 100 µM in the assay with HCT-15; > 100 µM (inactive) with HT-29. Moreover, the GI50 in the assay on IGROV-1, in the assay with M14, in the assay on MOLT-4, in the assay with Malme-3M, in the assay on NCI-H23 and in the assay with NCI-H522 was > 100 µM (inactive) throughout. Besides, the GI50 in the assay on OVCAR-3 and in the assay with SN12C was > 100 µM (inactive) throughout.
For `COc1ccc(/C(=C\c2cc(OC)c(OC)c(OC)c2)C(=O)O)cc1`, the GI50 with CAKI-1 is 30.4 µM (inactive); in the assay on CCRF-CEM, 32.5 µM (inactive); in the assay with COLO 205 it was 18.3 µM (inactive); in the assay on EKVX, 57 µM (inactive); with HCT-116, 29 µM (inactive); with HCT-15, 32.1 µM. Further, the GI50 in the assay on HT-29 is 35.6 µM (inactive); in the assay on IGROV-1, 48.4 µM (inactive); with M14, 26.6 µM (inactive); in the assay on MOLT-4, 27.5 µM (inactive); with Malme-3M, 55.3 µM (inactive); with NCI-H522 it was 21 µM (inactive). The figures for the GI50 with OVCAR-3 and in the assay with SN12C were 32 µM (inactive) and 37.9 µM (inactive), respectively.
